In the NIST ThermoML archive (doi:10.1021/je0500431):

How the values were obtained:
[1] = for surface tension liquid-gas: Ring tensiometer; for mass density: 101.33 kPa, Liquid
[2] = xn = mol fraction of the nth substance listed; settings: Ring tensiometer

OCc1ccccc1 [benzenemethanol]
[1]
Settings | mass density [kg/m3] | surface tension liquid-gas [mN/m]
293.15 K | 1045.2 | 39.05
298.15 K | 1041.4 | 38.58
303.15 K | – | 38.12
308.15 K | – | 37.63
313.15 K | – | 37.16
318.15 K | 1025.8 | 36.63
323.15 K | – | 36.18

OCc1ccccc1 [benzenemethanol] + CC(C)O
surface tension liquid-gas [mN/m], [2]
Settings | x2 = 0 | x2 = 0.0029 | x2 = 0.005 | x2 = 0.0076 | x2 = 0.0117 | x2 = 0.0207 | x2 = 0.0329 | x2 = 0.0494
293.15 K | 39.05 | 37.69 | 37.53 | 37.21 | 36.95 | 36.79 | 36.56 | 36.06
298.15 K | 38.58 | 37.3 | 37.09 | 36.8 | 36.53 | 36.37 | 36.15 | 35.53
303.15 K | 38.12 | 36.95 | 36.68 | 36.43 | 36.13 | 35.97 | 35.78 | 35.09
308.15 K | 37.63 | 36.62 | 36.32 | 36.05 | 35.75 | 35.55 | 35.41 | 34.61
313.15 K | 37.16 | 36.29 | 35.92 | 35.68 | 35.39 | 35.14 | 35.04 | 34.11
318.15 K | 36.63 | 35.89 | 35.48 | 35.27 | 35.04 | 34.73 | 34.62 | 33.63
323.15 K | 36.18 | 35.55 | 35.04 | 34.92 | 34.64 | 34.29 | 34.22 | 33.22

OCc1ccccc1 [benzenemethanol] + CCC(C)O
surface tension liquid-gas [mN/m], [2]
Settings | x2 = 0 | x2 = 0.0026 | x2 = 0.0056 | x2 = 0.0078 | x2 = 0.0107 | x2 = 0.0246 | x2 = 0.0366 | x2 = 0.0512
293.15 K | 39.05 | 37.5 | 37.14 | 36.95 | 36.4 | 36.07 | 35.65 | 35.32
298.15 K | 38.58 | 37.08 | 36.75 | 36.52 | 36.05 | 35.64 | 35.25 | 34.88
303.15 K | 38.12 | 36.63 | 36.31 | 36.12 | 35.72 | 35.18 | 34.83 | 34.4
308.15 K | 37.63 | 36.2 | 35.97 | 35.71 | 35.39 | 34.77 | 34.46 | 34
313.15 K | 37.16 | 35.75 | 35.55 | 35.31 | 35.03 | 34.37 | 34.03 | 33.54
318.15 K | 36.63 | 35.35 | 35.17 | 34.9 | 34.67 | 33.95 | 33.62 | 33.07
323.15 K | 36.18 | 34.95 | 34.8 | 34.49 | 34.34 | 33.5 | 33.24 | 32.7

OCc1ccccc1 [benzenemethanol] + CCCC(C)O
surface tension liquid-gas [mN/m], [2]
Settings | x2 = 0 | x2 = 0.0026 | x2 = 0.0055 | x2 = 0.0093 | x2 = 0.0129 | x2 = 0.0238 | x2 = 0.0344 | x2 = 0.0542
293.15 K | 39.05 | 36.98 | 36.71 | 36.43 | 35.99 | 35.72 | 35.49 | 35.08
298.15 K | 38.58 | 36.48 | 36.22 | 35.95 | 35.54 | 35.32 | 35.08 | 34.61
303.15 K | 38.12 | 35.95 | 35.7 | 35.53 | 35.15 | 34.9 | 34.71 | 34.1
308.15 K | 37.63 | 35.46 | 35.18 | 35 | 34.73 | 34.49 | 34.32 | 33.61
313.15 K | 37.16 | 34.97 | 34.73 | 34.54 | 34.33 | 34.05 | 33.93 | 33.1
318.15 K | 36.63 | 34.44 | 34.18 | 34.07 | 33.91 | 33.63 | 33.49 | 32.69
323.15 K | 36.18 | 33.91 | 33.65 | 33.56 | 33.55 | 33.28 | 33.11 | 32.19

OCc1ccccc1 [benzenemethanol] + CCCCCO
surface tension liquid-gas [mN/m], [2]
Settings | x2 = 0 | x2 = 0.0037 | x2 = 0.0052 | x2 = 0.0083 | x2 = 0.0117 | x2 = 0.0213 | x2 = 0.0336 | x2 = 0.0536
293.15 K | 39.05 | 36.88 | 36.73 | 36.56 | 36.35 | 35.93 | 35.63 | 35.22
298.15 K | 38.58 | 36.41 | 36.34 | 36.12 | 35.93 | 35.5 | 35.21 | 34.76
303.15 K | 38.12 | 36.05 | 35.92 | 35.73 | 35.5 | 35.05 | 34.79 | 34.31
308.15 K | 37.63 | 35.64 | 35.51 | 35.28 | 35.1 | 34.64 | 34.35 | 33.8
313.15 K | 37.16 | 35.26 | 35.1 | 34.86 | 34.69 | 34.24 | 33.95 | 33.34
318.15 K | 36.63 | 34.86 | 34.7 | 34.47 | 34.29 | 33.82 | 33.52 | 32.95
323.15 K | 36.18 | 34.47 | 34.31 | 34.03 | 33.89 | 33.4 | 33.08 | 32.43

OCc1ccccc1 [benzenemethanol] + CCCCO
surface tension liquid-gas [mN/m], [2]
Settings | x2 = 0 | x2 = 0.0034 | x2 = 0.0044 | x2 = 0.0071 | x2 = 0.0117 | x2 = 0.0213 | x2 = 0.0303 | x2 = 0.0492
293.15 K | 39.05 | 37.89 | 37.67 | 37.12 | 36.88 | 36.62 | 36.46 | 35.94
298.15 K | 38.58 | 37.43 | 37.23 | 36.67 | 36.48 | 36.17 | 35.99 | 35.49
303.15 K | 38.12 | 36.95 | 36.79 | 36.22 | 36.03 | 35.68 | 35.52 | 35.06
308.15 K | 37.63 | 36.5 | 36.36 | 35.77 | 35.6 | 35.18 | 35.02 | 34.64
313.15 K | 37.16 | 36.06 | 35.93 | 35.33 | 35.1 | 34.74 | 34.57 | 34.16
318.15 K | 36.63 | 35.63 | 35.51 | 34.84 | 34.66 | 34.27 | 34.02 | 33.74
323.15 K | 36.18 | 35.24 | 35.08 | 34.44 | 34.18 | 33.84 | 33.59 | 33.35

OCc1ccccc1 [benzenemethanol] + CCCO
surface tension liquid-gas [mN/m], [2]
Settings | x2 = 0 | x2 = 0.003 | x2 = 0.0062 | x2 = 0.0077 | x2 = 0.0116 | x2 = 0.0212 | x2 = 0.0326 | x2 = 0.0498
293.15 K | 39.05 | 37.57 | 37.01 | 36.88 | 36.75 | 36.35 | 35.95 | 35.62
298.15 K | 38.58 | 37.07 | 36.62 | 36.48 | 36.36 | 35.98 | 35.6 | 35.22
303.15 K | 38.12 | 36.6 | 36.23 | 36.12 | 36 | 35.62 | 35.3 | 34.86
308.15 K | 37.63 | 36.15 | 35.84 | 35.74 | 35.63 | 35.23 | 34.98 | 34.48
313.15 K | 37.16 | 35.64 | 35.44 | 35.36 | 35.2 | 34.83 | 34.67 | 34.14
318.15 K | 36.63 | 35.19 | 35.07 | 35 | 34.85 | 34.5 | 34.38 | 33.76
323.15 K | 36.18 | 34.73 | 34.68 | 34.64 | 34.44 | 34.13 | 34.03 | 33.41

CCCCO [butan-1-ol]
[1]
Settings | mass density [kg/m3] | surface tension liquid-gas [mN/m]
293.15 K | 810.4 | 24.16
298.15 K | 806.5 | 23.7
303.15 K | – | 23.26
308.15 K | – | 22.78
313.15 K | – | 22.39
318.15 K | 790.9 | 21.99
323.15 K | – | 21.53

CCCCO [butan-1-ol] + OCc1ccccc1
[2], x1 = 1
Settings | surface tension liquid-gas [mN/m]
293.15 K | 24.16
298.15 K | 23.7
303.15 K | 23.26
308.15 K | 22.78
313.15 K | 22.39
318.15 K | 21.99
323.15 K | 21.53

CCC(C)O (stereo not drawn) [butan-2-ol] + OCc1ccccc1
[2], x1 = 1
Settings | surface tension liquid-gas [mN/m]
293.15 K | 23.18
298.15 K | 22.74
303.15 K | 22.38
308.15 K | 21.94
313.15 K | 21.56
318.15 K | 21.11
323.15 K | 20.76

CCCCCO [pentan-1-ol] + OCc1ccccc1
[2], x1 = 1
Settings | surface tension liquid-gas [mN/m]
293.15 K | 25.69
298.15 K | 25.29
303.15 K | 24.86
308.15 K | 24.49
313.15 K | 24.06
318.15 K | 23.67
323.15 K | 23.3

CCCC(C)O (stereo not drawn) [pentan-2-ol] + OCc1ccccc1
[2], x1 = 1
Settings | surface tension liquid-gas [mN/m]
293.15 K | 23.7
298.15 K | 23.28
303.15 K | 22.87
308.15 K | 22.43
313.15 K | 22.04
318.15 K | 21.6
323.15 K | 21.16

CCCO [propan-1-ol] + OCc1ccccc1
[2], x1 = 1
Settings | surface tension liquid-gas [mN/m]
293.15 K | 23.73
298.15 K | 23.3
303.15 K | 22.9
308.15 K | 22.52
313.15 K | 22.1
318.15 K | 21.68
323.15 K | 21.27

CC(C)O [propan-2-ol] + OCc1ccccc1
[2], x1 = 1
Settings | surface tension liquid-gas [mN/m]
293.15 K | 21.3
298.15 K | 20.95
303.15 K | 20.55
308.15 K | 20.2
313.15 K | 19.83
318.15 K | 19.47
323.15 K | 19.09
